From PubChem BioAssay AID328 (DTP/NCI, 2004)
Several values for one entry are separate records, joined by “and”; a condition that tells them apart may be missing. Equal values may be shown once. Inconclusive results and toxic doses are left out. How the source made its calls: active means survival T/C of 150% or more; inactive means T/C below 125% in these data.

Tested on: BDF1 mice, P388 leukemia ip, median survival T/C
Assay: NCI In Vivo Anticancer Drug Screen. Data for tumor model P388 Leukemia (intraperitoneal) in B6D2F1 (BDF1) mice
Settings: endpoint: median survival time, higher = longer survival
Method in brief: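 In tumour-bearing mice, survival after compound treatment is set against the vehicle group and given as a quotient.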

[1] = dose: 12.5 mg/kg/injection, schedule: Q01DX009 (ip), vehicle: saline with Tween-80
[2] = dose: 50.0 mg/kg/injection, schedule: Q01DX009 (ip), vehicle: saline with Tween-80
[3] = dose: 50.0 mg/kg/injection, schedule: Q01DX009 (ip), vehicle: saline
[4] = dose: 100.0 mg/kg/injection, schedule: Q01DX009 (ip), vehicle: saline
[5] = dose: 100.0 mg/kg/injection, schedule: Q01DX009 (ip), vehicle: saline with Tween-80
[6] = dose: 200.0 mg/kg/injection, schedule: Q01DX009 (ip), vehicle: saline with Tween-80
[7] = dose: 100.0 mg/kg/injection, schedule: Q04DX003 (ip), vehicle: Klucel (hydroxypropylcellulose) (HPC)
[8] = dose: 200.0 mg/kg/injection, schedule: Q04DX003 (ip), vehicle: Klucel (hydroxypropylcellulose) (HPC)
[9] = dose: 400.0 mg/kg/injection, schedule: Q04DX003 (ip), vehicle: Klucel (hydroxypropylcellulose) (HPC)

Measured: T/C

CNC(=O)c1ccc(NC(=O)Nc2cccc(C3=NCCN3)c2)cc1NC(=O)Nc1cccc(C2=NCCN2)c1
active: dose: 30.0 mg/kg/injection, schedule: Q01DX009 (ip), vehicle: saline with Tween-80 162 % of control

Clc1ccc(N=C(SSC(Cl)(Cl)Cl)SSC(Cl)(Cl)Cl)cc1
inactive: [1] 116 % of control | dose: 25.0 mg/kg/injection, schedule: Q01DX009 (ip), vehicle: saline with Tween-80 103 % of control | [2] 109 % of control

CCCCCCCC(=O)[O][Hg][CH2]C1COC([CH2][Hg][O]C(=O)CCCCCCC)CO1 (stereo unspecified)
inactive: dose: 12.5 mg/kg/injection, schedule: Q01DX009 (ip), vehicle: saline sonified 110 % of control | dose: 50.0 mg/kg/injection, schedule: Q04DX003 (ip), vehicle: saline sonified 116 % of control

OCC12COCN1COC2
inactive: [3] 104 % of control | [4] 104 % of control

CCP(=Nc1cc(C(c2ccccc2)(c2ccccc2)c2ccccc2)cc(C(C)(C)C)c1O)(c1ccccc1)c1ccccc1
inactive: [2] 107 % of control | [5] 116 % of control | [6] 89 % of control

COc1cc(NS(=O)(=O)c2ccccc2)ccc1C
inactive: dose: 25.0 mg/kg/injection, schedule: Q01DX009 (ip), vehicle: Klucel (hydroxypropylcellulose) (HPC) 100 % of control | dose: 50.0 mg/kg/injection, schedule: Q01DX009 (ip), vehicle: Klucel (hydroxypropylcellulose) (HPC) 100 % of control | dose: 100.0 mg/kg/injection, schedule: Q01DX009 (ip), vehicle: Klucel (hydroxypropylcellulose) (HPC) 89 % of control and 110 % of control | [7] 104 % of control | [8] 95 % of control | [9] 95 % of control

C[C@]1(O)CC[C@H]2[C@@H]3CCC4=CC(=O)CC[C@]4(C)[C@@]3(F)[C@@H](O)C[C@@]21C
inactive: [7] 100 % of control | [8] 95 % of control | [9] 95 % of control

CC1OC(=O)C(C(C)C)NC(=O)C(C(C)C)OC(=O)C(C(C)C)NC(=O)C(C)OC(=O)C(C(C)C)NC(=O)C(C(C)C)OC(=O)C(C(C)C)NC(=O)C(C)OC(=O)C(C(C)C)NC(=O)C(C(C)C)OC(=O)C(C(C)C)NC1=O (stereo unspecified)
inactive: dose: 3.12 mg/kg/injection, schedule: Q04DX003 (ip), vehicle: Klucel (hydroxypropylcellulose) (HPC) 100 % of control | dose: 6.25 mg/kg/injection, schedule: Q04DX003 (ip), vehicle: Klucel (hydroxypropylcellulose) (HPC) 107 % of control
active: dose: 4.5 mg/kg/injection, schedule: Q01DX009 (ip), vehicle: saline 162 % of control | dose: 10.0 mg/kg/injection, schedule: Q01DX009 (ip), vehicle: saline 183 % of control | dose: 12.5 mg/kg/injection, schedule: Q04DX003 (ip), vehicle: Klucel (hydroxypropylcellulose) (HPC) 169 % of control | dose: 15.0 mg/kg/injection, schedule: Q01DX009 (ip), vehicle: saline 177 % of control | dose: 20.0 mg/kg/injection, schedule: Q01DX009 (ip), vehicle: Klucel (hydroxypropylcellulose) (HPC) 165 % of control

O=S(=O)(O)O
inactive: dose: 6.25 mg/kg/injection, schedule: Q01DX009 (ip), vehicle: water 90 % of control | [1] 124 % of control | dose: 12.5 mg/kg/injection, schedule: Q01DX009 (ip), vehicle: water 100 % of control | dose: 25.0 mg/kg/injection, schedule: Q04DX003 (ip), vehicle: water 90 % of control | dose: 100.0 mg/kg/injection, schedule: Q04DX003 (ip), vehicle: water 90 % of control

NNC(=O)c1ccncc1
inactive: [3] 110 % of control | dose: 50.0 mg/kg/injection, schedule: Q04DX003 (ip), vehicle: saline 105 % of control | dose: 100.0 mg/kg/injection, schedule: Q04DX003 (ip), vehicle: saline 105 % of control | dose: 200.0 mg/kg/injection, schedule: Q04DX003 (ip), vehicle: saline 100 % of control

COc1ccc(-c2oc3cc(OC4OC(C)C(O)C(O)C4O)c(O)c(O)c3c(=O)c2OC2OC(C)C(O)C(O)C2O)cc1 (stereo unspecified)
inactive: dose: 25.0 mg/kg/injection, schedule: Q01DX009 (ip), vehicle: saline + alcohol 92 % of control | dose: 50.0 mg/kg/injection, schedule: Q01DX009 (ip), vehicle: saline + alcohol 92 % of control | dose: 100.0 mg/kg/injection, schedule: Q01DX009 (ip), vehicle: saline + alcohol 106 % of control

COc1cc2c(cc1OC)C(CNC(=O)/C=C/c1cc(OC)c(OC)c(OC)c1)C2 (stereo unspecified)
inactive: [2] 98 % of control | [5] 107 % of control | [6] 88 % of control

Nc1ncnc2c1ncn2C(C=O)OC(C=O)CO (stereo unspecified)
inactive: dose: 0.88 mg/kg/injection, schedule: Q01DX009 (ip), vehicle: saline 106 % of control | dose: 1.0 mg/kg/injection, schedule: Q01DX009 (ip), vehicle: carboxymethylcellulose (CMC) 119 % of control | dose: 1.33 mg/kg/injection, schedule: Q01DX009 (ip), vehicle: saline 116 % of control | dose: 2.0 mg/kg/injection, schedule: Q01DX009 (ip), vehicle: saline 119 % of control | dose: 2.5 mg/kg/injection, schedule: Q04DX003 (ip), vehicle: carboxymethylcellulose (CMC) 113 % of control | dose: 5.0 mg/kg/injection, schedule: Q04DX003 (ip), vehicle: carboxymethylcellulose (CMC) 122 % of control | dose: 8.0 mg/kg/injection, schedule: Q01DX009 (ip), vehicle: carboxymethylcellulose (CMC) 97 % of control
active: dose: 3.3 mg/kg/injection, schedule: Q01DX009 (ip), vehicle: saline 171 % of control | dose: 4.0 mg/kg/injection, schedule: Q01DX009 (ip), vehicle: carboxymethylcellulose (CMC) 158 % of control | dose: 5.0 mg/kg/injection, schedule: Q01DX009 (ip), vehicle: saline 261 % of control | dose: 5.56 mg/kg/injection, schedule: Q01DX009 (ip), vehicle: saline 150 % of control | dose: 7.5 mg/kg/injection, schedule: Q01DX009 (ip), vehicle: saline 152 % of control | dose: 8.33 mg/kg/injection, schedule: Q01DX009 (ip), vehicle: saline 161 % of control | dose: 10.0 mg/kg/injection, schedule: Q04DX003 (ip), vehicle: carboxymethylcellulose (CMC) 153 % of control | dose: 12.5 mg/kg/injection, schedule: Q01DX009 (ip), vehicle: saline 209 % of control | dose: 16.0 mg/kg/injection, schedule: Q01DX009 (ip), vehicle: carboxymethylcellulose (CMC) 184 % of control | dose: 18.7 mg/kg/injection, schedule: Q01DX009 (ip), vehicle: saline 152 % of control | dose: 20.0 mg/kg/injection, schedule: Q04DX003 (ip), vehicle: carboxymethylcellulose (CMC) 160 % of control | dose: 40.0 mg/kg/injection, schedule: Q04DX003 (ip), vehicle: carboxymethylcellulose (CMC) 188 % of control | dose: 80.0 mg/kg/injection, schedule: Q04DX003 (ip), vehicle: carboxymethylcellulose (CMC) 179 % of control

Cc1ccc(C(=O)CCCCl)cc1C
inactive: dose: 100.0 mg/kg/injection, schedule: Q04DX003 (ip), vehicle: saline with Tween-80 104 % of control | dose: 200.0 mg/kg/injection, schedule: Q04DX003 (ip), vehicle: saline with Tween-80 104 % of control | dose: 400.0 mg/kg/injection, schedule: Q04DX003 (ip), vehicle: saline with Tween-80 109 % of control

Cc1c(-c2ccc(C(=N)N)cc2)oc(-c2ccc(C(=N)N)cc2)c1C
inactive: dose: 3.13 mg/kg/injection, schedule: Q01DX009 (ip), vehicle: saline with Tween-80 109 % of control

Nc1cncc2ncc(-c3ccc(Cl)c(Cl)c3)nc12
inactive: dose: 100.0 mg/kg/injection, schedule: Q01DX001 (ip), vehicle: saline sonified 91 % of control | dose: 200.0 mg/kg/injection, schedule: Q01DX001 (ip), vehicle: saline sonified 100 % of control | dose: 400.0 mg/kg/injection, schedule: Q01DX001 (ip), vehicle: saline sonified 104 % of control

CCN(CC)C(=O)COc1cc2c(O)c3c(O)c(C)c4c(c13)C(=O)C(C)(OC=CC(OC)C(C)C(OC(C)=O)C(C)C(O)C(C)C(O)C(C)C=CC=C(C)C(=O)N2)O4 (stereo unspecified)
inactive: [3] 109 % of control | [4] 109 % of control | dose: 200.0 mg/kg/injection, schedule: Q01DX009 (ip), vehicle: saline 123 % of control

COc1ccc(Cl)cc1N
inactive: [2] 95 % of control | [5] 91 % of control

CC(C)CCCCCCCCCCCCC(=O)NCC(=O)NC1C(C)OC(Nc2ncnc3nc[nH]c23)C(O)C1O (stereo unspecified)
inactive: dose: 432.0 micrograms/kg/injection, schedule: Q04DX003 (ip), vehicle: saline 110 % of control

CC1(C)C2CC3C(=CCCC3(Cl)C#N)C1C2 (stereo unspecified)
inactive: [7] 100 % of control | [8] 95 % of control | [9] 95 % of control

Cc1cc(Cl)ccc1NC(=O)c1ccc(Cl)cc1
inactive: dose: 75.0 mg/kg/injection, schedule: Q01DX009 (ip), vehicle: Klucel (hydroxypropylcellulose) (HPC) 113 % of control | dose: 150.0 mg/kg/injection, schedule: Q01DX009 (ip), vehicle: Klucel (hydroxypropylcellulose) (HPC) 95 % of control | dose: 300.0 mg/kg/injection, schedule: Q01DX009 (ip), vehicle: Klucel (hydroxypropylcellulose) (HPC) 100 % of control
